# Measurements from patent publication US7718715B2, “pH-modified latex comprising a synergistic combination of biocides” (S.C. Johnson & Son, Inc., priority 2004, dated 2010).
# Tests used:
# Candida albicans #10231 = test: Challenge Test (Antimicrobial Effectiveness Test), yeast inoculum; assay type: cell-based; parameters: key to Challenge Test result: Yeast C. albicans: Fail: Recovery of surviving organisms at 14 days was a failing result for the challenge test; settings: for Challenge Test result: Yeast C. albicans: stabilized acrylic latex A, DN 22%
# Method: The following cultures were obtained from American Type Culture Collection (ATCC) at 10801 University Boulevard, Manassas, Va. 20110-2209: Escherichia coli #11229, Pseudomonas aeruginosa #15442, Candida albicans #10231, Aspergillus niger #6275.
# The yeast inoculum was 0.10 ml of a 72-hr±4 hr culture of C. albicans in 25 grams of sample to give approximately 2×10^5 CFU/g. The C. albicans culture was grown in Potato Dextrose Broth (Difco Laboratories, Detroit, Mich.) at 28° C.
# Each of the 25-g samples were inoculated or challenged with 0.10 ml of the bacterial inoculum, the yeast inoculum, and the mold inoculum respectively on day-0 and day-14. All samples were stored at ambient temperature. Each sample (10 microliter) was streaked on appropriate agar plates (bacteria on Tryptic Soy Agar (Difco Laboratories, Detroit, Mich.) plates with neutralizer and yeast/mold on Potato Dextrose Agar (Difco Laboratories, Detroit, Mich.) plates with neutralizer) on day-1, day-2, day-3, day-7, day-14, day-15, day-16, day-17, day-21, and day-28 to test for survivors. Streaked plates were incubated at appropriate temperature and time (48-hr at 35±2° C. for bacteria and 72-hr at 28±2° C. for yeast/mold). On day-14, each sample was re-inoculated with appropriate inoculum after streaking on agar plates. Plates were read after incubation time. Recovery of surviving organisms at 14 days was a failing result for the challenge test.
# Biocides were always added after the reaction has been completed and after the batch has been cooled to <50° C. The desired temperature was dependent on the specific biocide. Many biocides become deactivated if exposed to high temperatures for an extended time. Each biocide was diluted with about 5× its weight with DI water and slowly added to the batch with good agitation. The dilution is to prevent the biocide from shocking the latex. The batch was mixed for a minimum of 20 minutes after the biocide was added to ensure good incorporation. If any temporary destabilization to the latex had occurred, it had time to recover prior to filtration.
# The Challenge Test is a qualitative laboratory procedure used to differentiate poorly and marginally preserved products from well-preserved products. Products are intentionally inoculated with test organisms and then evaluated by use of streak plating technique to determine if microbial reduction has been attained.
# [1] = test system: Escherichia coli, Pseudomonas aeruginosa, Candida albicans, Aspergillus niger; test: Challenge Test, all test organisms; assay type: cell-based; settings: stabilized acrylic latex A
# Method: The following cultures were obtained from American Type Culture Collection (ATCC) at 10801 University Boulevard, Manassas, Va. 20110-2209: Escherichia coli #11229, Pseudomonas aeruginosa #15442, Candida albicans #10231, Aspergillus niger #6275. The bacterial inoculum was 0.10 ml of a 1:1 mixture of the 24-hr±4 hr culture of E. coli and P. aeruginosa in 25 grams of sample to give approximately 4×10^6 CFU/g. Both E. coli culture and the P. aeruginosa culture were grown in Nutrient Broth (Difco Laboratories, Detroit, Mich.) at 35° C. The yeast inoculum was 0.10 ml of a 72-hr±4 hr culture of C. albicans in 25 grams of sample to give approximately 2×10^5 CFU/g. The C. albicans culture was grown in Potato Dextrose Broth (Difco Laboratories, Detroit, Mich.) at 28° C. The mold inoculum was 0.10 ml of A. niger culture specimen in 25 grams of sample to give approximately 2×10^5 CFU/g. The culture specimen was obtained from 7-day-old A. niger culture grown on Sabouraud Dextrose Agar (Difco Laboratories, Detroit, Mich.) with 0.2% Triton X-100 in 0.85% saline. Each of the 25-g samples were inoculated or challenged with 0.10 ml of the bacterial inoculum, the yeast inoculum, and the mold inoculum respectively on day-0 and day-14. All samples were stored at ambient temperature. […] Plates were read after incubation time. […]
SMILES,"Challenge Test result: Yeast C. albicans (Candida albicans #10231; 0.10% Bioban CS-1135, 0.00% Bronopol, pH 6.68)","Challenge Test result: Yeast C. albicans (Candida albicans #10231; 0.20% Bioban CS-1135, 0.00% Bronopol, pH 6.69)","Challenge Test result: Yeast C. albicans (Candida albicans #10231; 0.80% Bioban CS-1135, 0.00% Bronopol, pH 6.62)","Challenge Test result: Yeast C. albicans (Candida albicans #10231; 1.20% Bioban CS-1135, 0.00% Bronopol, pH 6.64)","Challenge Test result: Yeast C. albicans (Candida albicans #10231; 2.00% Bioban CS-1135, 0.00% Bronopol, pH 6.82)","killing of yeast (C. albicans) (Candida albicans #10231; BIOBAN CS-1135 at 1.2%, acrylic latex A)","control of Candida albicans (Candida albicans #10231; maximum allowable level, test stabilized acrylic latex)",concentration required to kill all organisms [1],"Challenge Test result: Yeast C. albicans (Candida albicans #10231; 0.10% Bronopol (30% active), 0.00% Bioban CS-1135, pH 6.64, Table 1)","Challenge Test result: Yeast C. albicans (Candida albicans #10231; 0.10% Bronopol (30% active), 0.00% Dowicil 75, pH 6.64, Table 3)","Challenge Test result: Yeast C. albicans (Candida albicans #10231; 0.20% Bronopol (30% active), 0.00% Bioban CS-1135, pH 6.65, Table 1)","Challenge Test result: Yeast C. albicans (Candida albicans #10231; 0.20% Bronopol (30% active), 0.00% Dowicil 75, pH 6.65, Table 3)","Challenge Test result: Yeast C. albicans (Candida albicans #10231; 0.50% Bronopol (30% active), 0.00% Bioban CS-1135, pH 6.58, Table 1)","Challenge Test result: Yeast C. albicans (Candida albicans #10231; 0.50% Bronopol (30% active), 0.00% Dowicil 75, pH 6.58, Table 3)","Challenge Test result: Yeast C. albicans (Candida albicans #10231; 0.80% Bronopol (30% active), 0.00% Bioban CS-1135, pH 6.57, Table 1)","Challenge Test result: Yeast C. albicans (Candida albicans #10231; 0.80% Bronopol (30% active), 0.00% Dowicil 75, pH 6.57, Table 3)","Challenge Test result: Yeast C. albicans (Candida albicans #10231; 1.20% Bronopol (30% active), 0.00% Bioban CS-1135, pH 6.57, Table 1)","Challenge Test result: Yeast C. albicans (Candida albicans #10231; 1.20% Bronopol (30% active), 0.00% Dowicil 75, pH 6.57, Table 3)"
"CC1(C)COCN1 [Bioban CS-1135, 4,4-dimethyl-oxazolidine]",Fail,Fail,Fail,Fail,Pass,failed to kill,failed to control,2.0%,,,,,,,,,,
"O=[N+]([O-])C(Br)(CO)CO [Bronopol, 2-bromo-2-nitro-1,3-propanediol]",,,,,,,,0.5%,Fail,Pass,Fail,Pass,Pass,Pass,Pass,Pass,Pass,Pass
